Reference: patent US12102432B2, “Uses of transdermal glomerular filtration rate measurement in continuous renal replacement therapy” (MediBeacon Inc., priority 2018, dated 2024)

Assay: In vivo clearance by CVVH in porcine model with bilateral nephrectomy
Parameters: species or system Swine
Protocol: Swine (3 male and 3 female, for both CVVH and CVVHD modalities) weighing 35-40 kg were used. In this model, a total functional nephrectomy was achieved by ligation of all renal arteries. Animals were inspected by professional veterinary staff within 48 hours of arrival. Any underlying infections or parasitism was treated based on veterinary recommendations.
Prior to study, the animals were fasted overnight (with water ad libitum) to reduce the risk of aspiration. On the morning of the study, animals were sedated with an intramuscular injection of Telazol/Xylazine (or a Ketamine/xylazine combination) at recommended doses and transported to the operating theatre. Pigs were then anesthetized via inhalation of 5% isoflurane in oxygen via mask. A catheter was placed in the marginal ear vein to provide immediate venous access for further medications and IV fluids.
Pigs were orotracheally intubated and the isoflurane concentration reduced to 1%-3% to maintain anesthesia for the duration of the experiment. Pigs were mechanically ventilated using a tidal volume of 10 mL/kg and respiratory rate adjusted to keep a P(CO2) of 40±2 mmHg. A three lead electrocardiogram was used to monitor heart rate and rhythm. Core body temperature was measured with a rectal thermistor probe and maintained at 37-39° C. with the use of a circulating water blanket.
Hair was removed from the ventral neck, abdominal and/or the femoral regions, and these sites were prepared for aseptic surgery. Lidocaine was injected at incision site(s). When a surgical plane of anesthesia was reached, the right carotid artery was approached via cut down incision and cannulated for continuous blood pressure monitoring. This facilitated withdrawal of blood samples for the study and for the determination of respiratory gases, acid-base status and glucose concentration. A catheter was placed in the right jugular/femoral vein to infuse medications or replacement fluids and an 11 Fr hemodialysis catheter was placed into the left jugular vein for both CVVH and CVVHD procedures.
The abdomen was then opened via a midline laparotomy. The renal hilum was identified, and ties were placed around the renal artery or arteries: for partial or total ligation as dictated by study requirements (full-function nephrectomy via total ligation of all renal arteries, and full-function nephrectomy of one kidney and partial ligation of the second kidney). Perivascular flow probes were placed around the proximal renal artery of the kidneys in situ, as required. […] A purse-sting suture was placed in the urinary bladder and a small cystotomy incision was performed to advance a Foley catheter for urine collection and quantification, as required.
Due to the length of time of study, the abdomen was closed in 2-3 layers with appropriate suture material to prevent desiccation of tissues. Suture patterns allowed for external extension of tubing and flow probe lines for equipment attachment as required. Following complete instrumentation, the pig was stabilized. Vital signs were monitored continuously and, once stable, either the CVVH and CVVHD experiment was initiated.
After taking a pre-MB-102 blood sample (baseline), a dose of 6 mg/kg of MB-102 was injected as a single bolus, followed by a 90 minute period of equilibration, to allow for MB-102 systemic redistribution (see FIGS. 7 and 13 for equilibration of fluorescent signal detected by the renal monitoring assembly). Thirty minutes after the MB-102 injection, Meropenum was infused for 30 minutes, which reached a peak concentration in blood ˜1 hr after the start of the infusion. After drug equilibration, CRRT was initiated (either CVVH or CVVHD) at a blood flow rate (BFR) of 100 mL/min with corresponding 20 mL/kg/hr effluent rate during a time-course of 90 minutes (with collections at 0, 30, 60, 90 minutes). […]

[1] = assembly on chest (QLS26), blood flow rate 100, effluent flow rate 20 mL/min, 1st of four regions
[2] = assembly on chest (QLS26), blood flow rate 100, effluent flow rate 20 mL/min, 3rd of four regions
[3] = assembly on chest (QLS26), blood flow rate 200, effluent flow rate 35 mL/min, 2nd of four regions
[4] = assembly on chest (QLS26), blood flow rate 200, effluent flow rate 35 mL/min, 4th of four regions
[5] = assembly on sternum (QLS25), blood flow rate 100, effluent flow rate 20 mL/min, 1st of four regions
[6] = assembly on sternum (QLS25), blood flow rate 100, effluent flow rate 20 mL/min, 3rd of four regions
[7] = assembly on sternum (QLS25), blood flow rate 200, effluent flow rate 35 mL/min, 2nd of four regions
[8] = assembly on sternum (QLS25), blood flow rate 200, effluent flow rate 35 mL/min, 4th of four regions

Structure (SMILES): Nc1nc(C(=O)N[C@H](CO)C(=O)O)c(N)nc1C(=O)N[C@H](CO)C(=O)O [MB-102, (2R,2′R)-2,2′-((3,6-diaminopyrazine-2,5-dicarbonyl)bis(azanediyl))bis(3-hydroxypropanoic acid)]
- MB-102 Clearance Rate Constant [1]: 0.1129 h⁻¹
- RDTC [1]: 8.86 h
- MB-102 Clearance Rate Constant [2]: 0.0879 h⁻¹
- RDTC [2]: 11.38 h
- MB-102 Clearance Rate Constant [3]: 0.1314 h⁻¹
- RDTC [3]: 7.61 h
- MB-102 Clearance Rate Constant [4]: 0.1308 h⁻¹
- RDTC [4]: 7.64 h
- MB-102 Clearance Rate Constant [5]: 0.1145 h⁻¹
- RDTC [5]: 8.73 h
- MB-102 Clearance Rate Constant [6]: 0.0763 h⁻¹
- RDTC [6]: 13.11 h
- MB-102 Clearance Rate Constant [7]: 0.145 h⁻¹
- RDTC [7]: 6.90 h
- MB-102 Clearance Rate Constant [8]: 0.1238 h⁻¹
- RDTC [8]: 8.08 h
